What was measured:
Assay type in all cases: in vivo, rat
[1] = test system: Sprague-Dawley rats fed high-fat atherogenic diet (HFD); test: Relative LDL, HDL, TG and TC levels in rats fed a high-fat atherogenic diet
Procedure: (§1) Sprague-Dawley rats (6-weeks-old male weighing about 180 grams) were randomly divided into three groups. The first group of the rats were subjected to a normal diet (ND) for a time period of 12 weeks. The second and the third group of the rats were subjected to a high-fat atherogenic diet (HFD, 40 kcal % fat, 1.25% cholesterol, 0.5% sodium cholate) for the time period of 12 weeks. The third HFD group of the rats were treated with about 5 mg/kg of RRx-001 every other week for the last 8 weeks before characterization (“HFD-RRx-001”). Several markers of inflammation and steatosis were evaluated.

[2] = test system: Sprague-Dawley rats fed high-fat atherogenic diet (HFD); test: NASH markers in HFD rats: hepatic TG, hepatic TC, steatosis score, serum ALT and AST; details: about 5 mg/kg every other week for last 8 of 12 weeks
Procedure: as §1
(§2) In a trial that tested for markers related to NASH, every other week administrations of RRx-001 reduced hepatic steatosis scores, serum ALT and AST levels, and hepatic levels of cholesterol and triglycerides in rats fed the HFD.

[3] = test system: NLRP3 inflammasome; test: Serum NLRP3, IL-1β and caspase-1 levels (ELISA) in HFD rats; details: about 5 mg/kg every other week for last 8 of 12 weeks
Procedure: as §1, §2

**Q.** What does the source list for O=C(CBr)N1CC([N+](=O)[O-])([N+](=O)[O-])C1 [RRx-001, 2-bromo-1-(3,3-dinitroazetidin-1-yl)ethan-1-one]?
**A.** relative amount of LDL ([1]; about 5 mg/kg RRx-001 every other week for last 8 of 12 weeks, ND normalized to 1.0, HFD alone approximately 6, FIG. 1A): approximately 4 times the LDL amount of the ND rats; relative amount of HDL ([1]; about 5 mg/kg every other week for last 8 of 12 weeks, ND normalized to 1, HFD alone approximately 0.2, FIG. 1B): approximately 0.4 relative to the ND rats; relative amount of total cholesterol (TC) ([1]; about 5 mg/kg every other week for last 8 of 12 weeks, ND normalized to 1, HFD alone approximately 2.7, FIG. 1D): approximately 1.8 times relative to the ND rats; relative amount of triglycerides (TG) ([1]; about 5 mg/kg every other week for last 8 of 12 weeks, ND normalized to 1, HFD alone approximately 6.2, FIG. 1C): approximately 4.4 relative to the ND rats; relative amount of hepatic TC ([2]; ND normalized to 1, HFD alone approximately 4.3, FIG. 3B): approximately 3.8 times relative to the ND rats; relative amount of hepatic TGs ([2]; ND normalized to 1, HFD alone approximately 8.2, FIG. 3A): approximately 5.7 times relative to the amounts of the ND rats; relative amount of IL-1β ([3]; ND normalized to 1, HFD alone approximately 1.7, FIG. 5B): approximately 1.2 times relative to the amount in the ND rats; relative amount of serum NLRP3 ([3]; ND normalized to 1, HFD alone approximately 1.75, FIG. 5A): approximately 1.3 times relative to the rats that were fed the ND; relative amount of caspase-1 ([3]; ND normalized to 1, HFD alone approximately 2.0, FIG. 5C): approximately 1.3 times relative to the rats that were fed the ND
